Source: PubChem BioAssay (NCI)
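Values below derive from 48-hour exposures of cells grown in 96-well plates, with endpoints linearly interpolated between the two concentrations bracketing the appropriate inhibition level. GI50 is the concentration that inhibits growth by half. TGI: total growth inhibition.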

Key:
Assay in all cases: NCI anticancer screen, dose series, 48 h
SR leukemia = test system: SR leukemia
KM12 colon = test system: KM12 colon
NCI-H460 lung = test system: NCI-H460 lung
SK-MEL-28 melanoma = test system: SK-MEL-28 melanoma
SF-295 CNS = test system: SF-295 CNS
NCI-H23 lung = test system: NCI-H23 lung
CAKI-1 renal = test system: CAKI-1 renal
U251 CNS = test system: U251 CNS
SNB-19 CNS = test system: SNB-19 CNS
HOP-92 NSCLC = test system: HOP-92 NSCLC
MCF7 breast = test system: MCF7 breast
786-0 renal = test system: 786-0 renal
OVCAR-8 ovarian = test system: OVCAR-8 ovarian
UACC-62 melanoma = test system: UACC-62 melanoma
UACC-257 melanoma = test system: UACC-257 melanoma
A498 renal = test system: A498 renal
MDA-MB-435 = test system: MDA-MB-435
SNB-75 CNS = test system: SNB-75 CNS
HT29 colon = test system: HT29 colon
CCRF-CEM leukemia = test system: CCRF-CEM leukemia
HOP-62 NSCLC = test system: HOP-62 NSCLC
SK-MEL-2 melanoma = test system: SK-MEL-2 melanoma
BT-549 breast = test system: BT-549 breast
HCT-116 colon = test system: HCT-116 colon
OVCAR-3 ovarian = test system: OVCAR-3 ovarian
IGROV1 ovarian = test system: IGROV1 ovarian
EKVX NSCLC = test system: EKVX NSCLC
HS 578T breast = test system: HS 578T breast
K-562 leukemia = test system: K-562 leukemia
OVCAR-5 ovarian = test system: OVCAR-5 ovarian
A549 NSCLC = test system: A549 NSCLC
DU-145 prostate = test system: DU-145 prostate
RPMI-8226 leukemia = test system: RPMI-8226 leukemia
LOX IMVI melanoma = test system: LOX IMVI melanoma
UO-31 renal = test system: UO-31 renal
HL-60(TB) leukemia = test system: HL-60(TB) leukemia
HCT-15 colon = test system: HCT-15 colon
SW-620 colon = test system: SW-620 colon
PC-3 prostate = test system: PC-3 prostate
NCI-H226 lung = test system: NCI-H226 lung
NCI/ADR-RES ovarian = test system: NCI/ADR-RES ovarian
SF-268 CNS = test system: SF-268 CNS
T-47D breast = test system: T-47D breast
TK-10 renal = test system: TK-10 renal
MOLT-4 leukemia = test system: MOLT-4 leukemia
SK-MEL-5 melanoma = test system: SK-MEL-5 melanoma
SF-539 CNS = test system: SF-539 CNS
ACHN renal = test system: ACHN renal
OVCAR-4 ovarian = test system: OVCAR-4 ovarian
MDA-MB-231 breast = test system: MDA-MB-231 breast
SN12C renal = test system: SN12C renal
COLO 205 colon = test system: COLO 205 colon
MALME-3M melanoma = test system: MALME-3M melanoma
HCC-2998 colon = test system: HCC-2998 colon
RXF 393 renal = test system: RXF 393 renal
NCI-H522 lung = test system: NCI-H522 lung
M14 melanoma = test system: M14 melanoma
SK-OV-3 ovarian = test system: SK-OV-3 ovarian

## COc1cc(/C=C/C(=O)c2cc(OC)c(OC)c(OC)c2)ccc1Oc1nc(NCCO)nc(N2CCOCC2)n1
SR leukemia
  GI50: 0.784 µM
  TGI: 4.8 µM
KM12 colon
  GI50: 2.99 µM
  TGI: 9.63 µM
NCI-H460 lung
  GI50: 1.87 µM
  TGI: 4.03 µM
SK-MEL-28 melanoma
  GI50: 1.92 µM
  TGI: 3.81 µM
SF-295 CNS
  GI50: 2.9 µM
  TGI: 10.6 µM
NCI-H23 lung
  GI50: 1.99 µM
  TGI: 4.8 µM
CAKI-1 renal
  GI50: 2.43 µM
  TGI: 9.16 µM
U251 CNS
  GI50: 1.62 µM
  TGI: 3.12 µM
SNB-19 CNS
  GI50: 2.31 µM
  TGI: 7.07 µM
HOP-92 NSCLC
  GI50: 2.75 µM
  TGI: 9.99 µM
MCF7 breast
  GI50: 1.72 µM
  TGI: 10.8 µM
786-0 renal
  GI50: 3.46 µM
  TGI: 13 µM
OVCAR-8 ovarian
  GI50: 2.56 µM
  TGI: 10.1 µM
UACC-62 melanoma
  GI50: 1.69 µM
  TGI: 3.19 µM
UACC-257 melanoma
  GI50: 2.83 µM
  TGI: 12.7 µM
A498 renal
  GI50: 3.58 µM
  TGI: 13.3 µM
MDA-MB-435
  GI50: 3.1 µM
  TGI: 11 µM
SNB-75 CNS
  GI50: 1.79 µM
  TGI: 6.2 µM
HT29 colon
  GI50: 2.83 µM
  TGI: 8.44 µM
CCRF-CEM leukemia
  GI50: 2.38 µM
  TGI: 23.5 µM
HOP-62 NSCLC
  GI50: 2.35 µM
  TGI: 6.04 µM
SK-MEL-2 melanoma
  GI50: 2.76 µM
  TGI: 8.19 µM
BT-549 breast
  GI50: 1.6 µM
  TGI: 3.32 µM
HCT-116 colon
  GI50: 1.53 µM
  TGI: 3.23 µM
OVCAR-3 ovarian
  GI50: 3.2 µM
  TGI: 10.6 µM
IGROV1 ovarian
  GI50: 2.45 µM
  TGI: 6.17 µM
EKVX NSCLC
  GI50: 2.81 µM
  TGI: 9.99 µM
HS 578T breast
  GI50: 3.62 µM
  TGI: 22.4 µM
K-562 leukemia
  GI50: 1.91 µM
  TGI: > 100 µM
OVCAR-5 ovarian
  GI50: 3.14 µM
  TGI: 10.6 µM
A549 NSCLC
  GI50: 2.78 µM
  TGI: 9.4 µM
DU-145 prostate
  GI50: 2.99 µM
  TGI: 12.4 µM
RPMI-8226 leukemia
  GI50: 1.63 µM
  TGI: 5.85 µM
LOX IMVI melanoma
  GI50: 0.642 µM
  TGI: 2.04 µM
UO-31 renal
  GI50: 1.66 µM
  TGI: 3.28 µM
HL-60(TB) leukemia
  GI50: 1.54 µM
  TGI: 6.8 µM
HCT-15 colon
  GI50: 1.6 µM
  TGI: 4.01 µM
SW-620 colon
  GI50: 2.24 µM
  TGI: 5.78 µM
PC-3 prostate
  GI50: 3.11 µM
  TGI: 13.5 µM
NCI-H226 lung
  GI50: 3.69 µM
  TGI: 19.7 µM
NCI/ADR-RES ovarian
  GI50: 4.72 µM
  TGI: 23.4 µM
SF-268 CNS
  GI50: 3.02 µM
  TGI: 12.9 µM
T-47D breast
  GI50: 3.12 µM
  TGI: 11.8 µM
TK-10 renal
  GI50: 3.12 µM
  TGI: 8.93 µM
MOLT-4 leukemia
  GI50: 1.98 µM
  TGI: 8.02 µM
SK-MEL-5 melanoma
  GI50: 1.77 µM
  TGI: 3.31 µM
SF-539 CNS
  GI50: 1.88 µM
  TGI: 4.58 µM
ACHN renal
  GI50: 1.64 µM
  TGI: 3.6 µM
OVCAR-4 ovarian
  GI50: 2.92 µM
  TGI: 10.5 µM
MDA-MB-231 breast
  GI50: 2.86 µM
  TGI: 11.3 µM
SN12C renal
  GI50: 1.79 µM
  TGI: 5.72 µM
COLO 205 colon
  GI50: 2.1 µM
  TGI: 4.39 µM
MALME-3M melanoma
  GI50: 2.67 µM
  TGI: 6.74 µM
HCC-2998 colon
  GI50: 2.23 µM
  TGI: 4.22 µM
RXF 393 renal
  GI50: 1.75 µM
  TGI: 3.48 µM
NCI-H522 lung
  GI50: 1.56 µM
  TGI: 3.17 µM
M14 melanoma
  GI50: 2.38 µM
  TGI: 7.32 µM
SK-OV-3 ovarian
  GI50: 2.44 µM
  TGI: 6.34 µM
